Reference: US20220409631A1, “METHODS OF INDUCING OR ENHANCING FARNESOID X RECEPTOR (FXR)-MEDIATED TRANSCRIPTIONAL RESPONSE” (YALE UNIVERSITY, priority 2019, published 2022)
Entries after “also recorded” stand apart in the source; their conditions may differ. Read-outs that look alike come from different tables or passages of the source.

How the values were obtained:
Format in all cases: cell-based
VDR = molecular target: T1, VDR (Homo sapiens, UniProt P11473); assay: Hormone receptor signaling pathway selectivity: VDRE (VDR); conditions: for IC50: with VD3; for EC50: biphasic model of action, read-out: EC50, stimulation of VDR activity
T1 sequence (P11473 1-427): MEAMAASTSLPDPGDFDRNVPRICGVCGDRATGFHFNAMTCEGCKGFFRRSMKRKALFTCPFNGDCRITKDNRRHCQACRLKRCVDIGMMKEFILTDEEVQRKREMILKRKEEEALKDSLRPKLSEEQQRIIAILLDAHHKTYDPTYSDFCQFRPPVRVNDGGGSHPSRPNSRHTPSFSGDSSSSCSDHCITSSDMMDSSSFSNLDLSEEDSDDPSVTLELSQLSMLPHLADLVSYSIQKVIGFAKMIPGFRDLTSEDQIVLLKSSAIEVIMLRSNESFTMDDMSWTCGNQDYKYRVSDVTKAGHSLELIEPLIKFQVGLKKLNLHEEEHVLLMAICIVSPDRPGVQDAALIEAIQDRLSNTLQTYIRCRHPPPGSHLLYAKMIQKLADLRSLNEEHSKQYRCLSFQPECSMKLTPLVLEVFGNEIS

AR = molecular target: T2, AR (Homo sapiens, UniProt P10275); assay: Hormone receptor signaling pathway selectivity: AR; conditions: with DHT
T2 sequence (P10275 1-920): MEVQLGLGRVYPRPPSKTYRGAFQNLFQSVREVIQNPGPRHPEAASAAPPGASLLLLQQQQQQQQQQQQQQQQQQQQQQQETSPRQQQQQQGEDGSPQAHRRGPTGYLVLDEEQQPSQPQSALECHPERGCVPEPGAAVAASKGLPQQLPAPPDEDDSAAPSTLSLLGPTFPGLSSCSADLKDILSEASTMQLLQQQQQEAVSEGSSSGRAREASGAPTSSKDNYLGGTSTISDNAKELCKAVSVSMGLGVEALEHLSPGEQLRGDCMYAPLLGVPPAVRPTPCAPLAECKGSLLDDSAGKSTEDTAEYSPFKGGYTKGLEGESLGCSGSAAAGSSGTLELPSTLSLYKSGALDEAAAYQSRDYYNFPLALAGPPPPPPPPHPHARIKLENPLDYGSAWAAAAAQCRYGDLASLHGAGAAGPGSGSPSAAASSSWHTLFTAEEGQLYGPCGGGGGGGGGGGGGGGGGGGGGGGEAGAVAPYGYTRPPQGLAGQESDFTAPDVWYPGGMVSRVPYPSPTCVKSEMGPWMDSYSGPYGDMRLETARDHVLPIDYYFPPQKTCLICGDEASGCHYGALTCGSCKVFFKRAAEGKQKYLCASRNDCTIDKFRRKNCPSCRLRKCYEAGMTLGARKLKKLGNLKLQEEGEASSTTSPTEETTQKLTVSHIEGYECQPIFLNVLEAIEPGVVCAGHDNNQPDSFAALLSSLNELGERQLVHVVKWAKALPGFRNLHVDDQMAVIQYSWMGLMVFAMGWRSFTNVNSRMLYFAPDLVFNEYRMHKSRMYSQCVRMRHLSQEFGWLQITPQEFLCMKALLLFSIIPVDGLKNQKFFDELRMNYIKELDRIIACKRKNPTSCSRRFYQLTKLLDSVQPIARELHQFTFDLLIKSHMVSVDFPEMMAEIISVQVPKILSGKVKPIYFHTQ

ER-β = ER-β (Homo sapiens, UniProt Q92731); assay: Hormone receptor signaling pathway selectivity: ER-β; conditions: with E2
FXR = molecular target: T3, FXR (Homo sapiens, UniProt Q96RI1); assay: FXR luciferase reporter assay in HepG2 reporter cells; conditions: for EC50: no ligand added, read-out: FXR (stimulation EC50); for induction of FXR activity / FXR mediated transcriptional response: HepG2 FXR-luciferase reporter cells
T3 construct: HepG2 cells were stably transfected with either FXR reporter DNA; endogenous in cells; host or cells: HepG2 cells stably transfected with a 3x FXR response element PGL4.2 luciferase reporter
T3 sequence (Q96RI1 1-486): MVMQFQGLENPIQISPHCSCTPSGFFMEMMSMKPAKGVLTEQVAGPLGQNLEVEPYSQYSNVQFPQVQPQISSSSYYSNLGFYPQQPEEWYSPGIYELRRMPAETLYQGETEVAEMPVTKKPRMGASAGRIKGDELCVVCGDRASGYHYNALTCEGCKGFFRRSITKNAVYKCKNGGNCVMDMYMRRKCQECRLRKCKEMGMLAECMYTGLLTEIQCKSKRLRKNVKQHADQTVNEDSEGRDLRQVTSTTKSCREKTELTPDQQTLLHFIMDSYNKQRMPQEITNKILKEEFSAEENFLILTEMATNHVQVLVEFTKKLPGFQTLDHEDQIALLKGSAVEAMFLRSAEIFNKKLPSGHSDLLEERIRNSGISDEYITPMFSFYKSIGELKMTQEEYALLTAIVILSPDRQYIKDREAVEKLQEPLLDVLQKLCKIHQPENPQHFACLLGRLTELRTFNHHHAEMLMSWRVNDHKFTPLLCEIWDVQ
Procedure: FXR luciferase reporter cells—FXR luciferase reporter cells—HepG2 cancer cells were used in the screening study. HepG2 cells were stably transfected with either FXR reporter DNA in which 3 repeated response element ([…])(SEQ ID NO:2) was inserted in-PGL4.2 luciferase reporter plasmid or LXR reporter DNA in which 3 repeated response element ([…])(SEQ ID NO:3) was inserted in PGL4.2 luciferase reporter plasmid. Reporter cells were selected by puromycin (1 ug/mL) in RPMI-1640 medium with 10% FBS.
Luciferase assay—Reporter cells were treated with compounds at 0, 10, 20, 40, and […] for 24h in a 37° C.-CO2 incubator with or without chenodeoxycholic acid (CDCA) for FXR reporter cells or GW3965 for LXR reporter cells. Cells were lysed using luciferase lysis buffer after which luciferase buffer with luciferin was added to generate luminescence. Luminescence was recorded using a luminescence microplate reader.

ER-α = molecular target: T4, ER-α (Homo sapiens, UniProt P03372); assay: Hormone receptor signaling pathway selectivity: ER-α mediated transcriptional response; conditions: with E2
T4 sequence (P03372 1-595): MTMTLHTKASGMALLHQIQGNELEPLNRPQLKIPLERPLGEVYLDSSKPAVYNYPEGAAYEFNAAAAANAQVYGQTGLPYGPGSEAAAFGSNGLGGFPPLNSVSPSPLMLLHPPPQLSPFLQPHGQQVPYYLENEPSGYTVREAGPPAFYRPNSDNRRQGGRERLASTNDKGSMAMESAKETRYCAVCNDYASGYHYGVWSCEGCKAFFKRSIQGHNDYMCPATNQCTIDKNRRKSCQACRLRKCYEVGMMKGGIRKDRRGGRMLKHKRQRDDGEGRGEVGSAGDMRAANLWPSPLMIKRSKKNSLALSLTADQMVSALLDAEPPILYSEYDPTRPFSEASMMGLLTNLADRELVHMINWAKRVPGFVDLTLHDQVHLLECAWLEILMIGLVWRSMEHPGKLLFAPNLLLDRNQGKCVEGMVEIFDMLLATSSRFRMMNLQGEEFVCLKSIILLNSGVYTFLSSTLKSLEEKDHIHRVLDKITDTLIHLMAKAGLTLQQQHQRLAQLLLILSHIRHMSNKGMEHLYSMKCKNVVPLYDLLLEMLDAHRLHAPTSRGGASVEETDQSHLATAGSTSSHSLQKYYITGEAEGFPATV

[1] = tested on: other hormone receptor signaling pathways; assay: Selectivity for different hormone receptor signaling pathways (panel)
BACS = assay: RT-qPCR for FXR target genes in HepG2 cells: BACS
Procedure: (§1) Real Time Quantitative PCR (RT-qPCR)—Real Time Quantitative PCR (RT-qPCR) for FXR target genes: RNA was extracted from NZZ compounds treated cells using the Roche High Pure RNA isolation kit. cDNA was then generated from RNA samples using Bio-rad iScript Advanced cDNA synthesis kit for RT-qPCR. qPCR was performed using primers as shown in the Table 1 and iTaq™ Universal SYBR® Green Supermix in CFX PCR machine (Bio-rad). Relative mRNA expression was calculated based on the change of the threshold cycle relative to the internal control, (3-actin, using a standard curve generated by purified PCR products.

PPARa = assay: RT-qPCR for FXR target genes in HepG2 cells: PPARa; conditions: concentration of about 75 μM to 85
Procedure: as §1

CYP7A1 = assay: RT-qPCR for FXR target genes in HepG2 cells: CYP7A1; conditions: concentration of about 35 μM to 45
Procedure: as §1

[2] = read-out: VDRE with ligand VD3 (inhibition IC50)
[3] = read-out: AR with ligand DHT (inhibition IC50)
[4] = read-out: ER-β with ligand E2 (inhibition IC50)
[5] = read-out: ER-α with ligand E2 (inhibition IC50)
[6] = read-out: IC50, inhibition of VD3 action on VDR
[7] = read-out: IC50, inhibition of DHT action on AR

ER-β, sequence (Q92731 whole entry, species assumed): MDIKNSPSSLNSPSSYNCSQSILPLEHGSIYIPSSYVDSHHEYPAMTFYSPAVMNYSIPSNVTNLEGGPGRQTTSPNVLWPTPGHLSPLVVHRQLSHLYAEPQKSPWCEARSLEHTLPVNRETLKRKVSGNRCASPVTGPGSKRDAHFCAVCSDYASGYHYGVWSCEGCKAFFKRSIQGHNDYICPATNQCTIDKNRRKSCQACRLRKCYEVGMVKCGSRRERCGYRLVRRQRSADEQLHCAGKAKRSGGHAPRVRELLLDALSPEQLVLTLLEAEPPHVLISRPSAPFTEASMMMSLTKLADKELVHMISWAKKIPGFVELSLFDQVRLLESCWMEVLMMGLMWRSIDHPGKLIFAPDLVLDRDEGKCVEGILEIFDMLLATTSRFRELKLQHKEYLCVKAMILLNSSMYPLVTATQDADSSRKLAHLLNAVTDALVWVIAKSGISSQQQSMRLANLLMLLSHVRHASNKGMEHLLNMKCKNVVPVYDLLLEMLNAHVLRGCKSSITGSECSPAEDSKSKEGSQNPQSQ

SMILES	IC50 (VDR; [2]) [µM]	IC50 (AR; [3]) [µM]	IC50 (ER-β; [4]) [µM]	EC50 (FXR) [µM]	IC50 (ER-α; [5]) [µM]	IC50 (ER-α; read-out: IC50, inhibition of E2 triggered ERα mediated transcriptional response) [µM]	IC50 (VDR; [6]) [µM]	IC50 (AR; [7]) [µM]	IC50 (ER-β; read-out: IC50, inhibition of E2 action on ERβ) [µM]	EC50 (VDR) [µM]	impact on other hormone receptor signaling pathways [1]	BACS mRNA expression, fold lower than the CDCA induced BACS expression (BACS)	induction of FXR activity / FXR mediated transcriptional response (FXR)	PPARa mRNA expression, fold higher than that induced by compound (II) (PPARa)	inhibition of CYP7A1, stronger than by compound (II) or by CDCA (CYP7A1)
C=C(CCC(C(=O)O)[C@H]1C[C@H](OC(C)=O)[C@@]2(C)C3=CC[C@H]4C(C)(C)[C@@H](O)CC[C@]4(C)C3=CC[C@]12C)C(C)C (some centres unmarked) [compound (IX)]	> 80	> 80	> 80	> 80	> 80	–	–	–	–	–	–	–	–	–	–
C=C(CC[C@@H](C(=O)O)[C@H]1C[C@H](O)[C@@]2(C)C3=CC[C@H]4C(C)(C)C(O)CC[C@]4(C)C3=CC[C@]12C)C(C)C (some centres unmarked) [compound (VI)]	> 80	> 80	> 80	> 80	> 80	–	–	–	–	–	–	–	–	–	–
C=C(CC[C@@H](C)[C@H]1CC[C@H]2C3=C(C(=O)C[C@]12C)[C@@]1(C)CCC(=O)[C@@H](C)[C@@H]1C[C@@H]3O)[C@@H](C)C(=O)O [compound (IV)]	> 80	> 80	> 80	> 80	70	~80	–	–	–	–	–	–	–	–	–
CC(C)=CCCC(C(=O)O)C1CC(O)C2(C)C3=CCC4C(C)(CCC(O)C4(C)C)C3=CCC12C (centres unmarked) [compound (V)]	> 80	> 80	> 80	> 80	> 80	–	–	–	–	–	–	–	–	–	–
C=C(CC[C@@H](C)[C@H]1CC[C@H]2C3=C(C(=O)C[C@]12C)[C@@]1(C)CCC(=O)[C@@H](C)[C@@H]1CC3=O)[C@H](C)C(=O)O [compound (VII)]	–	–	–	> 80	> 80	–	20	40	40	–	–	–	–	–	–
C=C(CC[C@@H](C)[C@H]1CC[C@H]2C3=C(CC[C@]12C)[C@@]1(C)CC[C@@H](O)C(C)(C)[C@@H]1C[C@@H]3O)[C@@H](C)C(=O)O [compound (XI)]	> 80	> 80	> 80	> 80	> 80	–	–	–	–	–	–	–	–	–	–
C=C(CCC(C(=O)O)C1CCC2(C)C3=CCC4C(C)(CCC(O)C4(C)C)C3=CCC12C)C(C)C (centres unmarked) [compound (X)]	> 80	> 80	> 80	> 80	> 80	–	–	–	–	1.5	–	–	–	–	–
C=C(CC[C@@H](C)[C@H]1CC[C@H]2C3=C(C(=O)C[C@]12C)[C@@]1(C)CCC(=O)[C@@H](C)[C@@H]1CC3=O)[C@@H](C)C(=O)O [compound (VIII)]	–	–	> 80	> 80	> 80	–	25	25	–	–	–	–	–	–	–
C=C(CC[C@@H](C)[C@H]1CC[C@H]2C3=C(C(=O)[C@H](O)[C@]12C)[C@@]1(C)CC[C@@H](O)[C@@H](C)[C@@H]1CC3=O)[C@H](C)C(=O)O [compound (II)]	> 80	> 80	> 80	40	> 80	–	–	–	–	–	no impact	about 2 fold	act as agonists; also recorded: induce/enhance FXR activity	–	–
C=C(CC[C@@H](C)[C@H]1CC[C@H]2C3=C(C(=O)C[C@]12C)[C@@]1(C)CCC(=O)[C@@H](C)[C@@H]1C[C@@H]3O)[C@H](C)C(=O)O [compound (III)]	> 80	> 80	> 80	> 80	> 80	–	–	–	–	–	–	–	–	–	–
C=C(CC[C@@H](C)[C@H]1CC[C@H]2C3=C(C(=O)[C@H](O)[C@]12C)[C@@]1(C)CC[C@@H](O)[C@@H](C)[C@@H]1CC3=O)[C@@H](C)C(=O)O [compound (I)]	> 80	> 80	> 80	25	> 80	–	–	–	–	–	no impact	about 2 fold	act as agonists; also recorded: induce/enhance FXR activity	about 2 fold	about 40%
C=C(CCC(C(=O)O)C1CCC2(C)C3=C(CCC12C)C1(C)CCC(O)C(C)(C)C1CC3)C(C)C (centres unmarked) [compound (XII)]	> 80	> 80	> 80	> 80	> 80	–	–	–	–	1.5	–	–	–	–	–
